Measurements reported in ChEMBL document CHEMBL4308897, “Antileishmanial activity and cytotoxicity of ent-beyerene diterpenoids” (Bioorg Med Chem, 2019).
The source made the active and inactive calls. The calls are words filed in the database; no cut-off is given here.

Tests used:
[1] = Cytotoxicity against human U937 cells after 72 hrs by MTT assay; type: cell-based, U-937; settings: read-out: LC50
Leishmania braziliensis [2] = experiment: Antileishmanial activity against Leishmania (Viannia) braziliensis HMOM/COL/88/UA301-EGFP intracellular amastigotes infected in human U937 cells after 72 hrs by flow cytometric analysis; type: functional, organism-based; settings: HMOM/COL/88/UA301, U-937, 72 h
[3] = Selectivity index, ratio of LC50 for human U937 cells to EC50 for Leishmania (Viannia) braziliensis HMOM/COL/88/UA301-EGFP intracellular amastigotes infected in human U937 cells; type: toxicity, cell-based; settings: read-out: Selectivity Index
Leishmania braziliensis [4] = experiment: Antileishmanial activity against Leishmania (Viannia) braziliensis HMOM/COL/88/UA301-EGFP infected in golden hamster assessed as clinical improvement at 200 ug administered intralesionally twice per week for 4 weeks measured 3 months post last dose relative to control; type: functional, organism-based
Syrian golden hamster [5] = experiment: Antiinflammatory activity in golden hamster infected with Leishmania (Viannia) braziliensis HMOM/COL/88/UA301-EGFP assessed as re-epithelialization in skin at 200 ug administered intralesionally twice per week for 4 weeks measured 3 months post last dose by histopathological analysis; type: functional, organism-based; settings: Mesocricetus auratus
Syrian golden hamster [6] = experiment: Antiinflammatory activity in golden hamster infected with Leishmania (Viannia) braziliensis HMOM/COL/88/UA301-EGFP assessed as migration of macrophages in skin at 200 ug administered intralesionally twice per week for 4 weeks measured 3 months post last dose by histopathological analysis; type: functional, organism-based; settings: Mesocricetus auratus
Syrian golden hamster [7] = experiment: Antiinflammatory activity in golden hamster infected with Leishmania (Viannia) braziliensis HMOM/COL/88/UA301-EGFP assessed as migration of plasmocytes in skin at 200 ug administered intralesionally twice per week for 4 weeks measured 3 months post last dose by histopathological analysis; type: functional, organism-based; settings: Mesocricetus auratus
Leishmania braziliensis [8] = experiment: Antileishmanial activity against Leishmania (Viannia) braziliensis HMOM/COL/88/UA301-EGFP infected in golden hamster assessed as clinical failure at 200 ug administered intralesionally twice per week for 4 weeks measured 3 months post last dose relative to control; type: functional, organism-based
Leishmania braziliensis [9] = experiment: Antileishmanial activity against Leishmania (Viannia) braziliensis HMOM/COL/88/UA301-EGFP infected in golden hamster assessed as relapse at 200 ug administered intralesionally twice per week for 4 weeks measured 3 months post last dose relative to control; type: functional, organism-based
Syrian golden hamster [10] = experiment: Antiinflammatory activity in golden hamster infected with Leishmania (Viannia) braziliensis HMOM/COL/88/UA301-EGFP assessed as migration of lymphocytes in skin at 200 ug administered intralesionally twice per week for 4 weeks measured 3 months post last dose by histopathological analysis; type: functional, organism-based; settings: Mesocricetus auratus
Leishmania braziliensis [11] = experiment: Antileishmanial activity against Leishmania (Viannia) braziliensis HMOM/COL/88/UA301-EGFP infected in golden hamster assessed as cure rate at 200 ug administered intralesionally twice per week for 4 weeks measured 3 months post last dose relative to control; type: functional, organism-based
[12] = Renal toxicity in golden hamster infected with Leishmania (Viannia) braziliensis HMOM/COL/88/UA301-EGFP assessed as vacuolar degeneration at 0.81% to 1.96% administered topically as cream formulation for 20 days measured 90 days post last dose by histopathological analysis; design: species or system Mesocricetus auratus; settings: in vivo, topical_or_ocular, 2160 h
[13] = Hepatotoxicity in golden hamster infected with Leishmania (Viannia) braziliensis HMOM/COL/88/UA301-EGFP assessed as congestion at 0.81% to 1.96% administered topically as cream formulation for 20 days measured 90 days post last dose by histopathological analysis; type: toxicity, Mesocricetus auratus; settings: in vivo, topical_or_ocular, 2160 h
Leishmania braziliensis [14] = experiment: Antileishmanial activity against Leishmania (Viannia) braziliensis HMOM/COL/88/UA301-EGFP infected in golden hamster assessed as cure rate at 0.81% administered topically as cream formulation for 20 days measured 3 months post last dose relative to control; type: functional
Leishmania braziliensis [15] = experiment: Antileishmanial activity against Leishmania (Viannia) braziliensis HMOM/COL/88/UA301-EGFP infected in golden hamster assessed as clinical improvement at 0.81% administered topically as cream formulation for 20 days measured 3 months post last dose relative to control; type: functional
Syrian golden hamster [16] = experiment: (§1) Antiinflammatory activity in golden hamster infected with Leishmania (Viannia) braziliensis HMOM/COL/88/UA301-EGFP assessed as migration of lymphocytes in skin at 0.81% to 1.96% administered topically as cream formulation for 20 days and measured 3 months post last treatment by histopathological analysis; type: functional, organism-based; settings: Mesocricetus auratus
[17] = Hepatotoxicity in golden hamster infected with Leishmania (Viannia) braziliensis HMOM/COL/88/UA301-EGFP assessed as infiltration of lymphocytes at 0.81% to 1.96% administered topically as cream formulation for 20 days measured 90 days post last dose by histopathological analysis; type: toxicity, Mesocricetus auratus; settings: in vivo, topical_or_ocular, 2160 h
Leishmania braziliensis [18] = experiment: Antileishmanial activity against Leishmania (Viannia) braziliensis HMOM/COL/88/UA301-EGFP infected in golden hamster assessed as parasitic load per milligram of tissue at 0.81 to 1.96% administered topically as cream formulation for 20 days measured 3 months post last dose by RT-PCR analysis; type: functional
Leishmania braziliensis [19] = experiment: Antileishmanial activity against Leishmania (Viannia) braziliensis HMOM/COL/88/UA301-EGFP infected in golden hamster assessed as relapse at 0.81% administered topically as cream formulation for 20 days measured 3 months post last dose relative to control; type: functional
[20] = Hepatotoxicity in golden hamster infected with Leishmania (Viannia) braziliensis HMOM/COL/88/UA301-EGFP assessed as vacuolar degeneration at 0.81% to 1.96% administered topically as cream formulation for 20 days measured 90 days post last dose by histopathological analysis; type: toxicity, Mesocricetus auratus; settings: in vivo, topical_or_ocular, 2160 h
[21] = Hepatotoxicity in golden hamster infected with Leishmania (Viannia) braziliensis HMOM/COL/88/UA301-EGFP assessed as hemosiderin pigmentation at 0.81% to 1.96% administered topically as cream formulation for 20 days measured 90 days post last dose by histopathological analysis; type: toxicity, Mesocricetus auratus; settings: in vivo, topical_or_ocular, 2160 h
[22] = Toxicity in golden hamster infected with Leishmania (Viannia) braziliensis HMOM/COL/88/UA301-EGFP assessed as effect on serum creatinine level at 0.81% to 1.96% administered topically as cream formulation for 20 days and measured day 8 post last treatment; design: species or system Mesocricetus auratus; settings: in vivo, topical_or_ocular, 480 h
[23] = Hepatotoxicity in golden hamster infected with Leishmania (Viannia) braziliensis HMOM/COL/88/UA301-EGFP assessed as infiltration of macrophages at 0.81% to 1.96% administered topically as cream formulation for 20 days measured 90 days post last dose by histopathological analysis; type: toxicity, Mesocricetus auratus; settings: in vivo, topical_or_ocular, 2160 h
[24] = Toxicity in golden hamster infected with Leishmania (Viannia) braziliensis HMOM/COL/88/UA301-EGFP assessed as effect on serum alanine aminotransferase level at 0.81% to 1.96% administered topically as cream formulation for 20 days and measured day 8 post last treatment; design: species or system Mesocricetus auratus; settings: in vivo, topical_or_ocular, 480 h
[25] = Toxicity in golden hamster infected with Leishmania (Viannia) braziliensis HMOM/COL/88/UA301-EGFP assessed as change in body weight at 0.81% to 1.96% administered topically as cream formulation for 20 days measured up to 90 days post last dose; design: species or system Mesocricetus auratus; settings: in vivo, topical_or_ocular
Leishmania braziliensis [26] = experiment: Antileishmanial activity against Leishmania (Viannia) braziliensis HMOM/COL/88/UA301-EGFP infected in golden hamster assessed as cure rate at 1.96% administered topically as cream formulation for 20 days measured 3 months post last dose relative to control; type: functional
Leishmania braziliensis [27] = experiment: Antileishmanial activity against Leishmania (Viannia) braziliensis HMOM/COL/88/UA301-EGFP infected in golden hamster assessed as relapse at 1.96% administered topically as cream formulation for 20 days measured 3 months post last dose relative to control; type: functional
Syrian golden hamster [28] = experiment: as §1, with “macrophages” for “lymphocytes”; type: functional, organism-based; settings: Mesocricetus auratus
Syrian golden hamster [29] = experiment: as §1, with “plasmocytes” for “lymphocytes”; type: functional, organism-based; settings: Mesocricetus auratus
[30] = Toxicity in golden hamster infected with Leishmania (Viannia) braziliensis HMOM/COL/88/UA301-EGFP assessed as effect on serum BUN level at 0.81% to 1.96% administered topically as cream formulation for 20 days and measured day 8 post last treatment; design: species or system Mesocricetus auratus; settings: in vivo, topical_or_ocular, 480 h
Leishmania braziliensis [31] = experiment: Antileishmanial activity against Leishmania (Viannia) braziliensis HMOM/COL/88/UA301-EGFP infected in golden hamster assessed as clinical failure at 1.96% administered topically as cream formulation for 20 days measured 3 months post last dose relative to control; type: functional
Leishmania braziliensis [32] = experiment: Antileishmanial activity against Leishmania (Viannia) braziliensis HMOM/COL/88/UA301-EGFP infected in golden hamster assessed as clinical failure at 0.81% administered topically as cream formulation for 20 days measured 3 months post last dose relative to control; type: functional
Leishmania braziliensis [33] = experiment: Antileishmanial activity against Leishmania (Viannia) braziliensis HMOM/COL/88/UA301-EGFP infected in golden hamster assessed as clinical improvement at 1.96% administered topically as cream formulation for 20 days measured 3 months post last dose relative to control; type: functional

## Cc1ccc(S(=O)(=O)N/N=C2/C[C@]34CC[C@H]5[C@@](C)(CCC[C@@]5(C)C(=O)O)[C@@H]3CC[C@@]2(C)C4)cc1
[1]
  CC50 at 72 h: 5.9 µM
Leishmania braziliensis [2]
  EC50: 2.3 µM
[3]
  selectivity ratio: 3.1

## MEGLUMINE ANTIMONATE
Leishmania braziliensis [4]
  Activity: 16.7%
Syrian golden hamster [5]
  Activity: Active
Syrian golden hamster [6]
  Activity: Active
Syrian golden hamster [7]
  Activity: Active
Leishmania braziliensis [8]
  Activity: 0%
Leishmania braziliensis [9]
  Activity: 16.7%
Syrian golden hamster [10]
  Activity: Active
Leishmania braziliensis [11]
  Activity: 66.7%

## C[C@]12C=C[C@@]3(CC[C@@H]4[C@](C)(CO)CCC[C@@]4(C)[C@@H]3CC1)C2
[12]
  Activity: Toxic
[1]
  CC50 at 72 h: 114 µM
[13]
  Activity: Toxic
Leishmania braziliensis [14]
  Activity: 50%
Leishmania braziliensis [15]
  Activity: 50%
Leishmania braziliensis [2]
  EC50: 16 µM
Syrian golden hamster [16]
  Activity: Active
[17]
  Activity: Toxic
Leishmania braziliensis [18]
  Activity: <500
Leishmania braziliensis [19]
  Activity: 0%
[20]
  Activity: Toxic
[21]
  Activity: Toxic
[22]
  Activity: Non-Toxic
[23]
  Activity: Toxic
[24]
  Activity: Non-Toxic
[25]
  Activity: Non-Toxic
Leishmania braziliensis [26]
  Activity: 16.7%
Leishmania braziliensis [27]
  Activity: 16.7%
Syrian golden hamster [28]
  Activity: Active
Syrian golden hamster [29]
  Activity: Active
[30]
  Activity: Non-Toxic
[3]
  selectivity ratio: 5.1
Leishmania braziliensis [31]
  Activity: 16.7%
Leishmania braziliensis [32]
  Activity: 0%
Leishmania braziliensis [33]
  Activity: 50%

## CCOC(=O)[C@]1(C)CCC[C@@]2(C)[C@@H]3CC[C@@]4(C)C[C@]3(CC[C@@H]21)C/C4=N/NS(=O)(=O)c1ccc(C)cc1
[1]
  CC50 at 72 h: 8.8 µM
Leishmania braziliensis [2]
  EC50: 3 µM
[3]
  selectivity ratio: 3.5

## CCOC(=O)[C@]1(C)CCC[C@@]2(C)[C@@H]3CC[C@@]4(C)C[C@]3(CC[C@@H]21)C/C4=N/O
[1]
  CC50 at 72 h: 15.7 µM
Leishmania braziliensis [2]
  EC50: 8.8 µM
[3]
  selectivity ratio: 1.8

## CCOC(=O)[C@]1(C)CCC[C@@]2(C)[C@@H]3CC[C@@]4(C)C[C@]3(CC[C@@H]21)C[C@H]4O
[1]
  CC50 at 72 h: 28.8 µM
Leishmania braziliensis [2]
  EC50: 13.6 µM
[3]
  selectivity ratio: 1.4

## C[C@@H]1[C@H](O)[C@@H](C)/C=C/C=C/C=C/C=C/C=C/C=C/C=C/[C@H](O[C@@H]2O[C@H](C)[C@@H](O)[C@H](N)[C@@H]2O)C[C@@H]2O[C@](O)(C[C@@H](O)C[C@@H](O)[C@H](O)CC[C@@H](O)C[C@@H](O)CC(=O)O[C@H]1C)C[C@H](O)[C@H]2C(=O)O [AMPHOTERICIN B]
[1]
  CC50 at 72 h: 54.4 µM
Leishmania braziliensis [2]
  EC50: 0.8 µM
[3]
  selectivity ratio: 71.8

## C[C@@]12CC[C@@H]3[C@@](CC[C@H]4[C@@]3(C)CCC[C@@]4(C)C(=O)O)(CC1=O)C2 [ISOSTEVIOL]
[1]
  CC50 at 72 h: 66.9 µM
Leishmania braziliensis [2]
  EC50: > 20 µM
[3]
  selectivity ratio: > 3.3

## C[C@]12CC[C@H]3[C@]4(C)CCC[C@@](C)(C(=O)O)[C@H]4CC[C@@]3(C1)[C@H]1O[C@H]12
[1]
  CC50 at 72 h: 64.8 µM
Leishmania braziliensis [2]
  EC50: 43.3 µM
[3]
  selectivity ratio: 1.5

## CCOC(=O)[C@]1(C)CCC[C@@]2(C)[C@@H]3CC[C@@]4(C)C[C@]3(CC[C@@H]21)CC4=O
[1]
  CC50 at 72 h: 51.9 µM
Leishmania braziliensis [2]
  EC50: 36.3 µM
[3]
  selectivity ratio: 0.86

## CCOC(=O)[C@]1(C)CCC[C@@]2(C)[C@@H]3CC=C(C)C[C@@]3(CC#N)CC[C@@H]21
[1]
  CC50 at 72 h: 9.1 µM
Leishmania braziliensis [2]
  EC50: 14.1 µM
[3]
  selectivity ratio: 0.6

## C[C@@]12CC[C@@H]3[C@@](CC[C@@H]4[C@](C)(CO)CCC[C@]43C)(CC1)C2
[1]
  CC50 at 72 h: 29.6 µM
Leishmania braziliensis [2]
  EC50: 18.1 µM
[3]
  selectivity ratio: 1.6

## C[C@]12CC[C@H]3[C@]4(C)CCC[C@@](C)(CO)[C@H]4CC[C@@]3(C1)[C@H]1O[C@H]12
[1]
  CC50 at 72 h: 118 µM
Leishmania braziliensis [2]
  EC50: > 63 µM
[3]
  selectivity ratio: > 1.9

## C[C@]12C=C[C@@]3(CC[C@H]4[C@@](C)(CCC[C@@]4(C)C(=O)O)[C@@H]3CC1)C2 [MONOGINOIC ACID]
[1]
  CC50 at 72 h: 130 µM
Leishmania braziliensis [2]
  EC50: > 66 µM
[3]
  selectivity ratio: > 2
